Numbers after ± are expanded uncertainties.
Conditions: Liquid, Ebulliometric method (Recirculating still)

For CCN(CC)CCO [(diethylamino)ethanol], the “vapor or sublimation pressure” value (418.34 K) was 60 ± 1.2 kPa and the “vapor or sublimation pressure” value (435.94 K) was 101.3 ± 2.1 kPa.
With CO [methanol] the “vapor or sublimation pressure” value (324.92 K) was 60 ± 0.87 kPa and the “vapor or sublimation pressure” value (337.82 K) was 101.3 ± 1.6 kPa.
For CCNCC [diethylamine], the “vapor or sublimation pressure” value (313.64 K) was 60 ± 1 kPa and the “vapor or sublimation pressure” value (328.67 K) was 101.3 ± 1.8 kPa.

Reference: the NIST ThermoML archive (doi:10.1021/je301219c)
